What was measured:
Format in all cases: in vivo
[1] = test system: ragweed (common ragweed, Ambrosia artemisiifolia); experiment: Test A postemergence, ragweed; conditions: 10 days
Procedure, shortened: (§1)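 Herbicidal response was scored visually after ten greenhouse days, comparing treated pots with untreated ones on a 0–100 control scale. Preemergence application was a directed soil spray; postemergence plants were treated at 2 to 10 cm height.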

[2] = test system: wheat (Triticum aestivum); experiment: Test A postemergence, wheat; conditions: 10 days
Procedure, shortened: as §1

[3] = test system: horseweed (Erigeron canadensis); experiment: Test A postemergence, horseweed; conditions: 10 days
Source text: (§2) Seeds of plant species selected from barnyardgrass (Echinochloa crus-galli), blackgrass (Alopecurus myosuroides), corn (Zea mays), foxtail, giant (giant foxtail, Setaria faberi), foxtail, green (green foxtail, Setaria viridis), goosegrass (Eleusine indica), kochia (Bassia scoparia), oat, wild (wild oat, Avena fatua), palmer amaranth (pigweed, palmer, Amaranthus palmeri), redroot pigweed (Amaranthus retroflexus), ragweed (common ragweed, Ambrosia artemisiifolia), ryegrass, Italian (Italian ryegrass, Lolium multiflorum), and soybean (Glycine max) were planted into a blend of loam soil and sand and treated preemergence with a directed soil spray using test chemicals formulated in a non-phytotoxic solvent mixture which included a surfactant.
(§3) At the same time, plants selected from these crop and weed species and also wheat (Triticum aestivum), galium (catchweed bedstraw, Galium aparine) and horseweed (Erigeron canadensis) were planted in pots containing the same blend of loam soil and sand and treated with postemergence applications of test chemicals formulated in the same manner. Plants ranged in height from 2 to 10 cm and were in the one- to two-leaf stage for the postemergence treatment. Treated plants and untreated controls were maintained in a greenhouse for 10 days, after which time all treated plants were compared to untreated controls and visually evaluated for injury. Plant response ratings, summarized in Table A, are based on a 0 to 100 scale where 0 is no effect and 100 is complete control. A dash (-) response means no test result.

[4] = test system: blackgrass (Alopecurus myosuroides); experiment: Test A preemergence, blackgrass; conditions: 0 to 100 scale, 10 days
Source text: as §2, §3

[5] = test system: kochia (Bassia scoparia); experiment: Test A preemergence, kochia; conditions: 0 to 100 scale, 10 days
Procedure, shortened: as §1

[6] = test system: soybean (Glycine max); experiment: Test A postemergence, soybean; conditions: 10 days
Source text: as §2, §3

[7] = test system: corn (Zea mays); experiment: Test A preemergence, corn; conditions: 0 to 100 scale, 10 days
Source text: as §2, §3

[8] = test system: goosegrass (Eleusine indica); experiment: Test A postemergence, goosegrass; conditions: 10 days
Source text: as §2, §3

[9] = test system: palmer amaranth (pigweed, palmer, Amaranthus palmeri); experiment: Test A postemergence, palmer amaranth; conditions: 10 days
Source text: as §2, §3

[10] = test system: foxtail, giant (giant foxtail, Setaria faberi); experiment: Test A postemergence, foxtail, giant; conditions: 10 days
Source text: as §2, §3

[11] = test system: galium (catchweed bedstraw, Galium aparine); experiment: Test A postemergence, galium; conditions: 10 days
Procedure, shortened: as §1

[12] = test system: goosegrass (Eleusine indica); experiment: Test A preemergence, goosegrass; conditions: 0 to 100 scale, 10 days
Source text: as §2, §3

[13] = test system: foxtail, giant (giant foxtail, Setaria faberi); experiment: Test A preemergence, foxtail, giant; conditions: 0 to 100 scale, 10 days
Source text: as §2, §3

[14] = test system: ragweed (common ragweed, Ambrosia artemisiifolia); experiment: Test A preemergence, ragweed; conditions: 0 to 100 scale, 10 days
Procedure, shortened: as §1

[15] = test system: corn (Zea mays); experiment: Test A postemergence, corn; conditions: 10 days
Procedure, shortened: as §1

[16] = test system: sedge, umbrella (small-flower umbrella sedge, Cyperus difformis); experiment: Test B flooded paddy test, sedge, umbrella; conditions: 250 g ai/ha, Flood; visually evaluated after 10 to 14 days
Procedure, shortened: (§4)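 2-leaf plants; pots flooded to 3 cm; compound applied to paddy water; depth kept constant; greenhouse 10–14 d; visual rating vs untreated, 0 = no effect, 100 = complete control.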

[17] = test system: ducksalad (Heteranthera limosa); experiment: Test B flooded paddy test, ducksalad; conditions: 250 g ai/ha, Flood; visually evaluated after 10 to 14 days
Procedure, shortened: as §4

[18] = test system: oat, wild (wild oat, Avena fatua); experiment: Test A postemergence, oat, wild; conditions: 10 days
Source text: as §2, §3

[19] = test system: ryegrass, Italian (Italian ryegrass, Lolium multiflorum); experiment: Test A preemergence, ryegrass, Italian; conditions: 0 to 100 scale, 10 days
Procedure, shortened: as §1

[20] = test system: palmer amaranth (pigweed, palmer, Amaranthus palmeri); experiment: Test A preemergence, palmer amaranth; conditions: 0 to 100 scale, 10 days
Source text: as §2, §3

[21] = test system: rice (Oryza sativa); experiment: Test B flooded paddy test, rice; conditions: 250 g ai/ha, Flood; visually evaluated after 10 to 14 days
Procedure, shortened: as §4

[22] = test system: barnyardgrass (Echinochloa crus-galli); experiment: Test B flooded paddy test, barnyardgrass; conditions: 250 g ai/ha, Flood; visually evaluated after 10 to 14 days
Procedure, shortened: as §4

[23] = test system: wheat (Triticum aestivum); experiment: Test A preemergence, wheat; conditions: 125 g ai/ha, 0 to 100 scale, 10 days
[24] = test system: oat, wild (wild oat, Avena fatua); experiment: Test A preemergence, oat, wild; conditions: 0 to 100 scale, 10 days
Source text: as §2, §3

[25] = test system: blackgrass (Alopecurus myosuroides); experiment: Test A postemergence, blackgrass; conditions: 10 days
Procedure, shortened: as §1

[26] = test system: kochia (Bassia scoparia); experiment: Test A postemergence, kochia; conditions: 10 days
Procedure, shortened: as §1

[27] = test system: ryegrass, Italian (Italian ryegrass, Lolium multiflorum); experiment: Test A postemergence, ryegrass, Italian; conditions: 10 days
Procedure, shortened: as §1

[28] = test system: soybean (Glycine max); experiment: Test A preemergence, soybean; conditions: 0 to 100 scale, 10 days
Source text: as §2, §3

[29] = 31 g ai/ha, postemergence, 0 to 100 scale (0 no effect, 100 complete control)
[30] = Postemergence, 125 g ai/ha, 0 to 100 scale

Cc1ccc2cc3ccc(F)cc3c(-c3c(OCOC(=O)C(C)(C)C)c(C)nn(C)c3=O)c2c1 [Compound 21]
10: Plant response rating, Oat, Wild [18, 29]
100: Plant response rating, Ragweed [1, 29] | Plant response rating, Ragweed [1, 30] | Plant response rating, Horseweed [3, 29] | Plant response rating, Horseweed [3, 30] | Plant response rating, Kochia ([5]; 31 g ai/ha) | Plant response rating, Kochia ([5]; 125 g ai/ha) | Plant response rating, Soybean [6, 29] | Plant response rating, Soybean [6, 30] | Plant response rating, Pigweed, Palmer [9, 29] | Plant response rating, Pigweed, Palmer [9, 30] | Plant response rating, Foxtail, Giant [10, 30] | Plant response rating, Galium [11, 29] | Plant response rating, Galium [11, 30] | Plant response rating, Foxtail, Giant ([13]; 125 g ai/ha) | Plant response rating, Sedge, Umbrella (0 to 100 scale where 0 is no effect and 100 is complete control) [16] | Plant response rating, Ducksalad (0 to 100 scale where 0 is no effect and 100 is complete control) [17] | Plant response rating, Pigweed, Palmer ([20]; 31 g ai/ha) | Plant response rating, Pigweed, Palmer ([20]; 125 g ai/ha) | Plant response rating, Kochia [26, 30] | Plant response rating, Ryegrass, Italian [27, 30]
50: Plant response rating, Ragweed ([14]; 31 g ai/ha)
30: Plant response rating, Goosegrass [8, 30] | Plant response rating, Corn [15, 29]
80: Plant response rating, Foxtail, Giant ([13]; 31 g ai/ha) | Plant response rating, Ryegrass, Italian [27, 29]
98: Plant response rating, Barnyardgrass (0 to 100 scale where 0 is no effect and 100 is complete control) [22]
0: Plant response rating, Wheat [2, 29] | Plant response rating, Wheat [2, 30] | Plant response rating, Blackgrass ([4]; 31 g ai/ha) | Plant response rating, Corn ([7]; 31 g ai/ha) | Plant response rating, Corn ([7]; 125 g ai/ha) | Plant response rating, Wheat [23] | Plant response rating, Oat, Wild ([24]; 31 g ai/ha) | Plant response rating, Soybean ([28]; 31 g ai/ha) | Plant response rating, Soybean ([28]; 125 g ai/ha)
20: Plant response rating, Goosegrass [8, 29] | Plant response rating, Blackgrass [25, 29] | Plant response rating, Blackgrass [25, 30]
90: Plant response rating, Foxtail, Giant [10, 29] | Plant response rating, Ragweed ([14]; 125 g ai/ha) | Plant response rating, Ryegrass, Italian ([19]; 125 g ai/ha) | Plant response rating, Kochia [26, 29]
60: Plant response rating, Goosegrass ([12]; 125 g ai/ha) | Plant response rating, Rice (0 to 100 scale where 0 is no effect and 100 is complete control) [21]
40: Plant response rating, Blackgrass ([4]; 125 g ai/ha) | Plant response rating, Goosegrass ([12]; 31 g ai/ha) | Plant response rating, Corn [15, 30] | Plant response rating, Oat, Wild [18, 30] | Plant response rating, Ryegrass, Italian ([19]; 31 g ai/ha) | Plant response rating, Oat, Wild ([24]; 125 g ai/ha)

From patent US12692238B2, “Substituted pyridazinone herbicides” (FMC CORPORATION, priority 2020, dated 2026)
